Reference: US20190209451A1, “SOLUBILIZING AGENTS FOR UV FILTERS IN COSMETIC FORMULATIONS” (BASF SE, priority 2016, published 2019)

Assay: Determination of the solubility of organic UV filters in levulynates used as solvents
Assay type: physicochemical
Conditions: UV filter dissolved in the named levulynate as solvent; stirred seven days at 25° C.; UV/Vis-spectrometry
Experimental: Afterwards 0.02 g (1%) of the respective substance are weighed and added to the solvent. The vial is placed into a thermostated waterbath, where the suspension/solution is stirred during seven days at 25° C. If the amount of substance put into the solvent is fully soluble, additional substance is added until precipitation can be observed. After seven days, the sample is centrifuged for 30 minutes at 13000 rpm. The supernatant is transferred into a small beaker. In case the sample is still turbid, it is filtered through a 0.2 μm non-steril Membrex 25 PET filter. Clear solutions must not be filtered. When a clear solution is obtained, the concentration of the substance is determined with UV/Vis-spectrometry. For this purpose the sample may be diluted with a suitable solvent or, in case of lower concentrations, may be measured as is. If the test solvent is water, further dilution is done with water. If the test solvent is volatile, the same solvent is taken for dilution. If the test solvent is a cosmetic emollient, dioxane is used for further dilution. In order to evaluate the concentration from the UV-spectroscopic results, the extinction coefficient is needed, which is determined independently with a solvent of similar polarity like that one used for dilution of the saturated solutions. The solubility can be calculated using the equation of the Lambert-Beer-Law: [formula] • c=concentration (mol/l) • E=extinction measured at λ max. • f=dilution factor • ε=extinction coefficient at λmax [I/(mol/cm)] • d=optical pathlength [cm] Due to spectra overlapping the solubility of some crystalline UV filters in liquid UV filters cannot be determined exactly by UV spectroscopy. In this case solubilities are determined via HPLC with reversed phase C-18 columns and UV-detectors.

Compound	Solubility of Bis-Ethylhexyloxyphenol Methoxyphenyl Triazine [w/%]	Solubility of Diethylamino Hydroxybenzoyl Hexyl Benzoate [w/%]	Solubility of Ethylhexyl Triazone [w/%]
CCCCC(CC)COC(=O)CCC(C)=O (centres unmarked) [2-Ethylhexyl-levulynate]	6.5	33.4	
CCCCCCCCOC(=O)CCC(C)=O [C8-levulynate, levulinic acid octyl ester]	10.4	42.6	25.1
CCCCCCCCCCOC(=O)CCC(C)=O [C10-levulynate, levulinic acid decyl ester]	9.1	31.0	21.0
CCCCCCCCCCCCOC(=O)CCC(C)=O [C12-Levulynate, levulinic acid dodecyl ester]	3.0	29.1	11.7
